Assay results reported in paper PMC7961996, “Small Immunomodulatory Molecules as Potential Therapeutics in Experimental Murine Models of Acute Lung Injury (ALI)/Acute Respiratory Distress Syndrome (ARDS)” (International Journal of Molecular Sciences, 2021).
Where “and” joins values, the source holds several entries; their conditions need not be identical. Identical values can stand only once. Like-named read-outs stand apart in the source and are kept apart here.

Tests used:
[1] = Pharmacokinetic (toxicokinetic) study, plasma; type: in vivo, Sprague Dawley rats; settings: for RAUC (RATIO): Day 3 AUC(0-t) / Day 1 AUC(0-t) / Cmax / Tmax / half-life / clearance / Vd / AUC(0-t): plasma; for Cmax / Tmax / half-life / clearance / Vd / AUC(0-t): Sprague Dawley, rat
Procedure: For the PK study of AVR-48 in rats, a formulation consisting of 10% DMSO, 20% tetraglycol, 20% PEG 400, and 50% sterile water was developed. Each preparation was made on the same day of dose administration. The components of the control/vehicle item formulation were added sequentially. Briefly, the appropriate volume of DMSO (10% of the final volume) was measured into a container followed by gradual addition of PEG 400 (20% of the final volume) and sterile water (50% of the final volume) to make up the volume and mixed thoroughly till completely dissolved. The final solution was filtered through a 0.22 µm membrane filter (Millipore Millex® GP PES, St. Louis, MO, USA) into a sterile vial. All PK studies were also conducted with 8–10-week-old male and female Sprague Dawley rats. An additional nine animals/sex/dose were used for PK analysis and blood (approximately 0.3 mL each) was collected from each rat on days 1 and 3 of the treatment period at time points of 5, 30, 60, 90, 120, and 180 min, and 6, 12 h, and 24 h post dose that were randomized to provide a total of three samples/sex for each time point. Samples were collected by jugular venipuncture and the samples were collected into tubes containing the anticoagulant, K3EDTA. The collection of BALF was limited to the terminal time points of 6 h, 12 h, and 24 h. AVR-48 concentrations in the blood and BALF were determined using LC/MS/MS analysis developed in house. PK parameters were estimated using Phoenix pharmacokinetic software (Certara, Princeton, NJ, USA) using a non-compartmental approach consistent with the IV bolus injection.

CLP-induced sepsis mice = experiment: CLP-induced lung and organ injury, histopathology scoring; type: in vivo, C57BL6/J mice
Procedure: For CLP-induced lung injury, CLP was performed as previously described by us. As antibiotics are the standard of care in sepsis patients, one dose of imipenem was given SC at 5 mg/kg 30 min after the procedure, followed by two doses of AVR-48 (10 mg/kg, IV) at 16 h and 24 h following the surgery, and sacrificed after 72 h. The sham mice (controls) had the abdominal cavity opened, the cecum was not perforated, and the peritoneum was stitched back.
H&E staining was performed on 5 µm paraffin lung tissue sections following standardized methods. Four to five random images per lung and 4–5 lungs per experimental group were characterized for lung injury score analysis.
Two different scoring systems were used for lung injury scoring, as the experiments were done at different times. The LPS-/hyperoxia-induced ALI scoring was done by DS, while the CLP-induced lung and other organs’ scoring was done by two additional independent investigators (PD and BA). For the hyperoxia- and LPS-induced lung injury, scoring was done on histological sections based on neutrophil infiltration and epithelial injury using the methods as described before with modifications. Four to five random images per lung and 4–5 lungs per experimental group were characterized for lung injury score analysis. We used a 0–4 scoring system in which 0 = no infiltration/injury, 1 = minimal infiltration/injury to 25% of the field, 2 = mild infiltration/injury […] of the field, 3 = moderate infiltration/injury to 75% of the field, and 4 = severe infiltration/diffuse injury. For the CLP-induced ALI, scoring was done following the methodology as reported earlier by a qualified pathologist (BA) in masked manner. Lungs were harvested from all the mice after the endpoint, and lung injury was scored based on the criteria of alveolar damage and vascular congestion and hemorrhage. As CLP-induced sepsis also results in damage to the rest of the viscera, which can contribute to ALI/ARDS, other organs were also scored as above, to determine the recovery potential of AVR-48 as a candidate drug. The following (cells) were taken into account while scoring the injury level followed by recovery after treatment in other vital organs: heart (myocardium), kidney (glomeruli, tubules), gut (mucosal cells, enterocytes), spleen (lymphoid follicles), liver (hepatocytes), brain (neuronal damage), testis (Seminiferous tubules), and lymph nodes. The final scores were calculated on the basis of total percentage of the damaged/recovered area and by the number of areas/High power field (HPF) as reported above.

hPBMC = system: hPBMC; parameters: method as in earlier work; settings: cited from earlier work
[2] = AVR-48 10 mg/kg IV x2 after CLP
[3] = after CLP, Mean ± SEM, CLP alone 4.8± 0.2

CC(=O)N[C@H]1[C@H](Oc2ccc([N+](=O)[O-])cc2)O[C@H](CO)[C@@H](O)[C@@H]1O [AVR-48, N-((2S,3R,4R,5S,6R)-4,5-dihydroxy-6-(hydroxymethyl)-2-(4-nitrophenoxy)tetrahydro-2H-pyran-3-yl) acetamide]
RAUC (RATIO): Day 3 AUC(0-t) / Day 1 AUC(0-t) ([1]; 40 mg/kg IV, Female): 0.679
RAUC (RATIO): Day 3 AUC(0-t) / Day 1 AUC(0-t) ([1]; 40 mg/kg IV, Male): 0.928
RAUC (RATIO): Day 3 AUC(0-t) / Day 1 AUC(0-t) ([1]; 80 mg/kg IV, Female): 0.953
RAUC (RATIO): Day 3 AUC(0-t) / Day 1 AUC(0-t) ([1]; 80 mg/kg IV, Male): 0.777
Cmax ([1]; iv, 40 mg/kg, 40 mg/kg dose IV, read-out: Cmax): 364 ± 9.36 µM
Cmax ([1]; iv, 80 mg/kg, 80 mg/kg dose IV, read-out: Cmax): 749.3 ± 5.25 µM
Cmax ([1]; other: IV or IP, 10 mg/kg, single IV or IP 10 mg/kg dose, extrapolated from Cmax at 40 mg/kg, read-out: Cmax in plasma expected for 10 mg/kg): ~91 µM
Tmax ([1]; Day 1, 40 mg/kg IV, Female): 5 min
Tmax ([1]; Day 1, 80 mg/kg IV, Female): 5 min
Tmax ([1]; Day 1, 80 mg/kg IV, Male): 5 min
Tmax ([1]; Day 3, 40 mg/kg IV, Male): 5 min
AUC(0-t) dose dependence ([1]; between 40 and 80 mg/kg/day dose groups): increased in a dose-dependent manner
half-life ([1]; both sexes, intravenous, 80 mg/kg, both doses (40 and 80 mg/kg), read-out: half-life (T1/2)): 84 to 140 min
clearance ([1]; both sexes, intravenous, day 1 and day 3 of dosing, read-out: clearance (CL)): 12.4 to 18.3 mL/min/kg
Vd ([1]; both sexes, intravenous, day 1 and day 3 of dosing, read-out: volume of distribution (Vd)): 1.51 to 3.72 L/kg
AUC(0-t) ([1]; female, iv, 40 mg/kg, Day 1, 40 mg/kg IV, Female): 53900 ± 2860 ng·h/mL
clearance ([1]; female, iv, 40 mg/kg, Day 1, 40 mg/kg IV, Female, read-out: Cl (converted)): 12.4 mL/min/kg
Cmax ([1]; female, iv, 40 mg/kg, Day 1, 40 mg/kg IV, Female, read-out: Cmax ± SE): 129000 ng/mL and 377 µM
half-life ([1]; female, iv, 40 mg/kg, Day 1, 40 mg/kg IV, Female, read-out: T1/2 (converted)): 84 min
Vd ([1]; female, iv, 40 mg/kg, Day 1, 40 mg/kg IV, Female, read-out: Vd): 1.51 L/kg
AUC(0-t) ([1]; female, iv, 40 mg/kg, Day 3, 40 mg/kg IV, Female): 36600 ng·h/mL
clearance ([1]; female, iv, 40 mg/kg, Day 3, 40 mg/kg IV, Female, read-out: Cl (converted)): 18.3 mL/min/kg
Cmax ([1]; female, iv, 40 mg/kg, Day 3, 40 mg/kg IV, Female, read-out: Cmax ± SE): 90400 ng/mL and 264 µM
half-life ([1]; female, iv, 40 mg/kg, Day 3, 40 mg/kg IV, Female, read-out: T1/2 (converted)): 140 min
Vd ([1]; female, iv, 40 mg/kg, Day 3, 40 mg/kg IV, Female, read-out: Vd): 3.72 L/kg
AUC(0-t) ([1]; female, iv, 80 mg/kg, Day 1, 80 mg/kg IV, Female): 101000 ng·h/mL
clearance ([1]; female, iv, 80 mg/kg, Day 1, 80 mg/kg IV, Female, read-out: Cl (converted)): 13.4 mL/min/kg
Cmax ([1]; female, iv, 80 mg/kg, Day 1, 80 mg/kg IV, Female, read-out: Cmax ± SE): 237000 ng/mL and 692 µM
half-life ([1]; female, iv, 80 mg/kg, Day 1, 80 mg/kg IV, Female, read-out: T1/2 (converted)): 87 min
Vd ([1]; female, iv, 80 mg/kg, Day 1, 80 mg/kg IV, Female, read-out: Vd): 1.68 L/kg
AUC(0-t) ([1]; female, iv, 80 mg/kg, Day 3, 80 mg/kg IV, Female): 95800 ng·h/mL
clearance ([1]; female, iv, 80 mg/kg, Day 3, 80 mg/kg IV, Female, read-out: Cl (converted)): 14 mL/min/kg
Cmax ([1]; female, iv, 80 mg/kg, Day 3, 80 mg/kg IV, Female, read-out: Cmax ± SE): 227000 ng/mL and 663 µM
half-life ([1]; female, iv, 80 mg/kg, Day 3, 80 mg/kg IV, Female, read-out: T1/2 (converted)): 123 min
Vd ([1]; female, iv, 80 mg/kg, Day 3, 80 mg/kg IV, Female, read-out: Vd): 2.48 L/kg
AUC(0-t) ([1]; male, iv, 40 mg/kg, Day 1, 40 mg/kg IV, Male): 49800 ± 962 ng·h/mL
clearance ([1]; male, iv, 40 mg/kg, Day 1, 40 mg/kg IV, Male, read-out: Cl (converted)): 13.4 mL/min/kg
Cmax ([1]; male, iv, 40 mg/kg, Day 1, 40 mg/kg IV, Male, read-out: Cmax ± SE): 351 µM and 120000 ng/mL
half-life ([1]; male, iv, 40 mg/kg, Day 1, 40 mg/kg IV, Male, read-out: T1/2 (converted)): 98.4 min
Vd ([1]; male, iv, 40 mg/kg, Day 1, 40 mg/kg IV, Male, read-out: Vd): 1.91 L/kg
AUC(0-t) ([1]; male, iv, 40 mg/kg, Day 3, 40 mg/kg IV, Male): 46200 ng·h/mL
clearance ([1]; male, iv, 40 mg/kg, Day 3, 40 mg/kg IV, Male, read-out: Cl (converted)): 14.5 mL/min/kg
Cmax ([1]; male, iv, 40 mg/kg, Day 3, 40 mg/kg IV, Male, read-out: Cmax ± SE): 115000 ng/mL and 336 µM
half-life ([1]; male, iv, 40 mg/kg, Day 3, 40 mg/kg IV, Male, read-out: T1/2 (converted)): 130 min
Vd ([1]; male, iv, 40 mg/kg, Day 3, 40 mg/kg IV, Male, read-out: Vd): 2.71 L/kg
AUC(0-t) ([1]; male, iv, 80 mg/kg, Day 1, 80 mg/kg IV, Male): 118000 ng·h/mL
clearance ([1]; male, iv, 80 mg/kg, Day 1, 80 mg/kg IV, Male, read-out: Cl (converted)): 11.3 mL/min/kg
Cmax ([1]; male, iv, 80 mg/kg, Day 1, 80 mg/kg IV, Male, read-out: Cmax ± SE): 276000 ng/mL and 806 µM
half-life ([1]; male, iv, 80 mg/kg, Day 1, 80 mg/kg IV, Male, read-out: T1/2 (converted)): 123 min
Vd ([1]; male, iv, 80 mg/kg, Day 1, 80 mg/kg IV, Male, read-out: Vd): 2.02 L/kg
AUC(0-t) ([1]; male, iv, 80 mg/kg, Day 3, 80 mg/kg IV, Male): 91500 ng·h/mL
clearance ([1]; male, iv, 80 mg/kg, Day 3, 80 mg/kg IV, Male, read-out: Cl (converted)): 14.7 mL/min/kg
Cmax ([1]; male, iv, 80 mg/kg, Day 3, 80 mg/kg IV, Male, read-out: Cmax ± SE): 190000 ng/mL and 555 µM
half-life ([1]; male, iv, 80 mg/kg, Day 3, 80 mg/kg IV, Male, read-out: T1/2 (converted)): 85.2 min
Vd ([1]; male, iv, 80 mg/kg, Day 3, 80 mg/kg IV, Male, read-out: Vd): 1.8 L/kg
accumulation ([1]; three days of twice daily administration): no accumulation
lung injury score vs CLP group (CLP-induced sepsis mice; AVR-48 10 mg/kg IV at 16 h and 24 h, sacrificed after 72 h, p < 0.001): significant recovery
appearance of the lung (histopathology) (CLP-induced sepsis mice; [2]): decreased inflammation and hemorrhage
histopathological changes in other vital organs vs CLP-only group (CLP-induced sepsis mice; [2]): dramatic improvement
Injury score: Brain, Neuronal Damage (CLP-induced sepsis mice; [3]): 3.6± 0.245
Injury score: Brain, Vascular Congestion & Hemorrhage (CLP-induced sepsis mice; [3]): 3.4± 0.245
Injury score: Gut, MVD (CLP-induced sepsis mice; [3]): 3.6± 0.245
Injury score: Gut, Vascular Congestion & Hemorrhage (CLP-induced sepsis mice; [3]): 3.6± 0.245
Injury score: Heart, Myocardial Damage (CLP-induced sepsis mice; [3]): 3.4± 0.245
Injury score: Heart, Vascular Congestion & Hemorrhage (CLP-induced sepsis mice; [3]): 3.4± 0.4
Injury score: Kidney, Glomerular Damage (CLP-induced sepsis mice; [3]): 3.6± 0.245
Injury score: Kidney, Glomerular Injury (CLP-induced sepsis mice; [3]): 3.6± 0.245
Injury score: Kidney, Vascular Congestion & Hemorrhage (CLP-induced sepsis mice; [3]): 3.6± 0.245
Injury score: Liver, Hepatocyte Injury (CLP-induced sepsis mice; [3]): 3.6± 0.245
Injury score: Liver, Vascular Congestion & Hemorrhage (CLP-induced sepsis mice; [3]): 3.6± 0.245
Injury score: Lung, Alveolar Damage (CLP-induced sepsis mice; [3]): 3.6± 0.245
Injury score: Lung, Vascular Congestion and Hemorrhage (CLP-induced sepsis mice; [3]): 3.6± 0.245
Injury score: Lymph Node, Follicular Damage (CLP-induced sepsis mice; [3]): 3.4± 0.245
Injury score: Spleen, Vascular Congestion & Hemorrhage (CLP-induced sepsis mice; [3]): 3.6± 0.245
Injury score: Testis, Tubular Damage (CLP-induced sepsis mice; [3]): 3.6± 0.245
Injury score: Testis, Vascular Congestion & Hemorrhage (CLP-induced sepsis mice; [3]): 3.6± 0.245
TNF-α (hPBMC; in vitro hPBMC model): decreases TNF-α
IL-10 expression (hPBMC; with or without LPS): increased IL-10 expression
